This experiment deals with T1, Fiz (Drosophila melanogaster, UniProt Q9VY04).
T1 construct: N-terminal RGS-6xHis tag kept; E. coli Rosetta Gami DE3, Ni-NTA; contains FAD
T1 sequence (Q9VY04 2-646): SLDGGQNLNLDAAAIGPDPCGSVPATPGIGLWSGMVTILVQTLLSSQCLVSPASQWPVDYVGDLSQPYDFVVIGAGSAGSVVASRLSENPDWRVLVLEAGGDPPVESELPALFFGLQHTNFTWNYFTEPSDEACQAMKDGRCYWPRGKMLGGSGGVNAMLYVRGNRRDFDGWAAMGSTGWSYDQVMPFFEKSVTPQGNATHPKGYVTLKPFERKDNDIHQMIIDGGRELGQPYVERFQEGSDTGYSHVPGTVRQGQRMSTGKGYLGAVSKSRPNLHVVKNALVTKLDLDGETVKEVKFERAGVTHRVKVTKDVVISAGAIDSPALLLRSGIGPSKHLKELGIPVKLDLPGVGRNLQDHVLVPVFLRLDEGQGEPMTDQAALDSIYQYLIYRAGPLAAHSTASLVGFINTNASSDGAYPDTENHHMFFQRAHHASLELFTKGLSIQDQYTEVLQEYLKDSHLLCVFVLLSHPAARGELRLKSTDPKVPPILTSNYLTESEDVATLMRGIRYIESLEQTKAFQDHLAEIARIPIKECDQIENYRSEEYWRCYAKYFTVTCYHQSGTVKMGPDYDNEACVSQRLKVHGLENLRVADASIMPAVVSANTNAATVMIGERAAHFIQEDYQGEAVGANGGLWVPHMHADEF
Put plainly: FAD content of purified protein (method in supplement). Type of experiment: binding. As to conditions: co-purified from E. coli, no FAD addition told.

`Cc1cc2nc3c(=O)[nH]c(=O)nc-3n(C[C@H](O)[C@H](O)[C@H](O)COP(=O)(O)OP(=O)(O)OC[C@H]3O[C@@H](n4cnc5c(N)ncnc54)[C@H](O)[C@@H]3O)c2cc1C` [FAD]: the “FAD content of purified protein (method in supplement)” value is on record as “we confirmed that our purified Fiz contained FAD”.

These data come from paper PMC10962836, “Cis-regulatory polymorphism at fiz ecdysone oxidase contributes to polygenic evolutionary response to malnutrition in Drosophila” (PLOS Genetics, 2024).
